Where two headings read alike, the source gives them in different places.
How the values were obtained:
PC3 (prostate) = assay: Anti-cell proliferation in tumor cells (14C-thymidine incorporation), PC3; format: cell-based
Method: (§1) The effect of compounds of the invention on cell proliferation in various tumor cells was tested based on incorporation of ^14C-thymidine into DNA of cells.
(§2) Similar to those described above in 3a, except that different cells, cell growth medium, and growth supplements were used. Human tumor cell lines derived from various human tissue origins (LoVo from colon, H460 from lung, T47D from breast, PC3 from prostate, A375 from melanoma, AsPC1 from pancreas) were obtained from the American Type Culture Collection (ATCC) and cultured under specified conditions required for each cell type, as provided by ATCC. Complete medium was obtained from Cellgro: Iscove's medium with 10% Fetal Bovine Serium (FBS) (Mediatech, Inc., Herndon, Va. 20171, Cat. No. 10-016-CV).
(§3) Tumor cells were seeded at approx. 3000–8000 cells per well in a volume of 100 μl of complete medium. Cells were grown for 24 hours in complete medium, and 1 μl of test compound was serially diluted in 100% DMSO and added to each well. For maximum growth control wells, only 1 μl of 100% DMSO was added. After 24 hours incubation, 20 μl of ^14C-thymidine master mix was added to each well and the ^14C-thymidine master mix was pepared according to the following regimen:
(§4) Cells were incubated for an additional 24 hours at 37° C. in medium containing test compound and ^14C-thymidine. Then, the reaction mixture was discarded and the plate was washed 2 times each with 200 μl PBS. Subsequently, each well on the plate was filled with 200 μl of PBS. The top of the plate was sealed with transparent plate sealer and white plate backing sealers were applied to the bottom of plates. The retained ^14C inside each well was measured using a Packard TopCount.
(§5) In order to test the potency of inhibition of the present compound, IC50 of an individual compound on the inhibition of tumor cell line proliferation was measured using the above procedure. As used herein, said IC50 refers to the concentration of the test compound at which the amount of tumor cell proliferation is reduced by one-half as compared to the maximum growth control wells without the compound.

A375 (melanoma) = assay: Anti-cell proliferation in tumor cells (14C-thymidine incorporation), A375; format: cell-based
Method: as §1, §2, §3, §4, §5

T47D (breast) = assay: Anti-cell proliferation in tumor cells (14C-thymidine incorporation), T47D; format: cell-based; details: Homo sapiens, read-out: IC50 on cell proliferation, T47D
Method: as §1, §2, §3, §4, §5

[1] = biological target: T1, PDGF-receptor beta enzyme comprising the tyrosine kinase domain (Homo sapiens, UniProt P09619); assay: Inhibition of PDGF-receptor kinase activity (cell-free, PLC1 peptide, 33P Flashplate); format: biochemical; details: PDGF-R kinase activity; for inhibition at 10 µM: compound at 10 uM, read-out: Percent Inhibition @ 10 uM; for IC50: read-out: IC50
T1 construct: from amino acid 545 to 1106 of GenBank Access NO: AAA36427
Procedure, shortened: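 The IC50 is the inhibitor level halving kinase activity relative to inhibitor-free wells, measured as 33P captured on a streptavidin-bound biotin-PLC1 peptide. The reaction ran 60 min at 30 °C in pH 8 Tris buffer with 1 mM DTT, 5 μM ATP and the 545–1106 kinase-domain enzyme.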

AsPC1 (pancreas) = assay: Anti-cell proliferation in tumor cells (14C-thymidine incorporation), AsPC1; format: cell-based
Method: as §1, §2, §3, §4, §5

[2] = Homo sapiens, PC-3; read-out: IC50 on cell proliferation, PC3
[3] = Homo sapiens, A-375; read-out: IC50 on cell proliferation, A375
[4] = Homo sapiens, ASPC1; read-out: IC50 on cell proliferation, AsPC1

T1 sequence (P09619 545-1106): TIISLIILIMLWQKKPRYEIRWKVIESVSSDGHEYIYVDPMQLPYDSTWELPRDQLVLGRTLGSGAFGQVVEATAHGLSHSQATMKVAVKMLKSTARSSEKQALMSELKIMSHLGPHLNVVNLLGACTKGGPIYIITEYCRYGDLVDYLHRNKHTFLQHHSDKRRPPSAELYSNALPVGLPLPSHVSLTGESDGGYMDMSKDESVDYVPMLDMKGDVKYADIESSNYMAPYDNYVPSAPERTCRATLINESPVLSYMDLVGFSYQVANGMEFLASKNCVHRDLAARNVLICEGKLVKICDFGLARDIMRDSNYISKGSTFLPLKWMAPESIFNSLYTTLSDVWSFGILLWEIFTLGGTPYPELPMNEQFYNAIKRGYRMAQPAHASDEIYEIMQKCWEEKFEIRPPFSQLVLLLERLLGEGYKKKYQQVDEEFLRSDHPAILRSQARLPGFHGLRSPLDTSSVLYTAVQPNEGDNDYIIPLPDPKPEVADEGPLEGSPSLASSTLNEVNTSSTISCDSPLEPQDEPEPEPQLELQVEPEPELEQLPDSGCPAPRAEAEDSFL

Row | Structure (SMILES) | IC50 (PC3 (prostate); [2]) | IC50 (A375 (melanoma); [3]) | IC50 (T47D (breast)) | inhibition at 10 µM [1] | IC50 [1] | IC50 (AsPC1 (pancreas); [4]) | IC50 (PC3 (prostate); Homo sapiens, PC-3, read-out: IC50 on cell proliferation, PC3) | IC50 (A375 (melanoma); Homo sapiens, A-375, read-out: IC50 on cell proliferation, A375) | IC50 (AsPC1 (pancreas); Homo sapiens, ASPC1, read-out: IC50 on cell proliferation, AsPC1)
1 | COC(=O)c1cccc(Nc2[nH]nc3c2Cc2cc(OC)c(OC)cc2-3)c1 [Compound 11, 3-(6,7-Dimethoxy-2,4-dihydro-indeno[1,2-c]pyrazol-3-ylamino)-benzoic acid methyl ester] | 14 nM | 5 nM | 7 nM | 97% | 15.7 nM | 30 nM | – | – | –
2 | COc1cc2c(cc1OC)-c1n[nH]c(Nc3ccccc3F)c1C2 [Compound 12, (6,7-Dimethoxy-2,4-dihydro-indeno[1,2-c]pyrazol-3-yl)-(2-fluoro-phenyl)-amine] | 13 nM | 11 nM | 31 nM | 76% | 56 nM | 77 nM | – | – | –
3 | COc1cc2c(cc1OC)-c1n[nH]c(Nc3cccc(F)c3)c1C2 [Compound 14, (3-Fluoro-phenyl)-(6,7-dimethoxy-2,4-dihydro-indeno[1,2-c]pyrazol-3-yl)-amine] | – | – | 32 nM | 108% | 1.7 nM | – | 20 nM | 7 nM | 592 nM
4 | Cc1ccc2c(c1)-c1n[nH]c(Nc3ccccc3)c1C2 [Compound 22, (7-Methyl-2,4-dihydro-indeno[1,2-c]pyrazol-3-yl)-phenyl-amine] | 49500 nM | 11600 nM | 381 nM | 96% | 45 nM | > 10000 nM | – | – | –
5 | COc1cc2c(cc1OC)-c1n[nH]c(Nc3cccnc3)c1C2 [Compound 30, (6,7-Dimethoxy-2,4-dihydro-indeno[1,2-c]pyrazol-3-yl)-pyridin-3-yl-amine] | 175 nM | 507 nM | 8200 nM | 107% | 16 nM | > 10000 nM | – | – | –
6 | COc1ccc2c(c1)-c1n[nH]c(Nc3ccccc3)c1C2 [Compound 39, (7-Methoxy-2,4-dihydro-indeno[1,2-c]pyrazol-3-yl)-phenyl-amine] | > 10000 nM | > 50000 nM | > 10000 nM | 92% | – | > 10000 nM | – | – | –
7 | COc1cc2c(cc1OC)-c1n[nH]c(NCc3ccccc3)c1C2 [Compound 63, Benzyl-(6,7-dimethoxy-2,4-dihydro-indeno[1,2-c]pyrazol-3-yl)-amine] | 6120 nM | 2840 nM | 2600 nM | 94% | 191 nM | 10300 nM | – | – | –
8 | COc1cccc(Nc2[nH]nc3c2Cc2cc4c(cc2-3)OCO4)c1 [Compound 97, (2,9-Dihydro-5,7-dioxa-2,3-diaza-cyclopenta[a]-s-indacen-1-yl)-(3-methoxy-phenyl)-amine] | 1680 nM | 362 nM | 622 nM | 91% | 54 nM | 5670 nM | – | – | –
9 | CN1CCN(c2ccc3c(c2)Cc2c-3n[nH]c2Nc2cccc(Br)c2)CC1 [Compound 122, (3-Bromo-phenyl)-[6-(4-methyl-piperazin-1-yl)-2,4-dihydro-indeno[1,2-c]pyrazol-3-yl]-amine] | 6340 nM | 14400 nM | 10500 nM | 70% | 16.2 nM | > 10000 nM | – | – | –
10 | COC(=O)c1cccc(Nc2[nH]nc3c2Cc2cc(OCCCN4CCCC4)c(OC)cc2-3)c1 [Compound 157, 3-[7-Methoxy-6-(3-pyrrolidin-1-yl-propoxy)-2,4-dihydro-indeno[1,2-c]pyrazol-3-ylamino]-benzoic acid methyl ester] | 3130 nM | 1230 nM | 1900 nM | 85% | 7 nM | > 10000 nM | – | – | –
11 | COc1cc2c(cc1OC)-c1n[nH]c(NCc3cc(Cl)ccc3Cl)c1C2 [Compound 330, (2,5-Dichloro-benzyl)-(6,7-dimethoxy-2,4-dihydro-indeno[1,2-c]pyrazol-3-yl)-amine] | 303 nM | 2180 nM | 355 nM | 100% | 16.2 nM | 1550 nM | – | – | –
12 | COc1cc2c(cc1OC)-c1c(c(Nc3cccc(F)c3)nn1C(=O)CO)C2 [Compound 432, 1-[3-(3-Fluoro-phenylamino)-6,7-dimethoxy-4H-indeno[1,2-c]pyrazol-1-yl]-2-hydroxy-ethanone] | 12 nM | 2 nM | 6 nM | 95.5% | 38 nM | 40 nM | – | – | –
